Where two headings read alike, the source gives them in different places.
Assays:
[1] = tested on: delayed-type hypersensitivity (DTH) response; assay: Delayed-type hypersensitivity to ovalbumin in guinea pigs, oral and intraperitoneal treatment; type: in vivo, guinea pig; settings: dexamethasone 5 mg/kg, CdA or CAFdA 1 mg/kg, 24 and 48 hours, p<0.01
Description: Delayed-type hypersensitivity (DTH) is a cell-mediated immune response that typically takes longer than 12 hours to develop. In the guinea pig, a DTH reaction to an antigen can be established by first immunizing the animal with the antigen in an adjuvant such as Freund's complete adjuvant. Subsequent intradermal injection of the antigen causes no change for at least 10 hours, after which there is a gradual increase in erythema and swelling in response to antigen injection. This response peaks about at about 24 hours after challenge, then gradually subsides.
Histologically, the inflammatory response is characterized by intense inundation of the site with mononuclear cells, of which about half are lymphocytes and the other half monocytes. DTH is therefore an indicator of a monocyte-mediated immune reaction.
In one study, guinea pigs were sensitized to ovalbumin in adjuvant. The animals were then treated either orally or intraperitoneally with saline (control), dexamethasone (5 mg/kg), CdA (1 mg/kg) or CAFdA (1 mg/kg). The animals were then injected with ovalbumin intradermally to elicit the DTH response. The mean area of the swelling size was measured for each animal (nine or ten animals were treated for each protocol).

[2] = tested on: autoantibody production; assay: 2-Chlorodeoxyadenosine in autohemolytic anemia patients; type: in vivo, human
Source text: Thus, the present invention provides a method for decreasing the number of circulating blood monocytes.

[3] = tested on: CEM, wild type; assay: Direct comparative cytotoxicity assay (Table II), CEM wild type; type: cell-based, human; settings: Homo sapiens, 120 h, read-out: ID50: concentration that produced 50 percent reduction in all numbers after five days
Source text: (§1) The two compounds, CdA and CAFdA, were also compared for in vitro activity against another group of human cell lines in a direct comparative assay.
(§2) ^1 Concentration that produced 50 percent reduction in all numbers
(§3) ^2 CEM cells are T lymphoblasts; DHL9 cells are lymphoblasts.

[4] = tested on: CEM, Increased 5'-nucleoside; assay: Direct comparative cytotoxicity assay (Table II), CEM increased 5'-nucleoside; type: cell-based, human; settings: Homo sapiens, 120 h, read-out: ID50: concentration that produced 50 percent reduction in all numbers after five days
Source text: as §1, §2, §3

[5] = tested on: neopterin; assay: Plasma neopterin levels in a rheumatoid arthritis patient treated with CdA; type: in vivo, human
Description: Plasma neopterin levels were measured in a patient with rheumatoid arthritis. Neopterin is released from monocytes and macrophages activated in an immune response. Huber et al., J. Exp. Med., 160:310-316 (1984). Likewise, high levels of neopterin are associated with clinical activity in patients with rheumatoid arthritis. Clinical activity was rated by the following criteria: duration of morning stiffness, range of motion, subjective pain score, measurement of grip strength, synovial thickening, and number of inflamed joints. Reibnegger et al., Arthritis Rheum., 29:1063-1070 (1986). The levels of neopterin in patients with rheumatoid arthritis are proportional to both clinical activity and the levels of activated monocytes and macrophages in these patients.
In this study, a patient with rheumatoid arthritis received CdA by a weekly, four hour intravenous infusion at a dosage of 0.125 to 0.15 mg/kg body weight for an approximately three month course of therapy. Plasma neopterin levels were measured throughout this treatment regime.

[6] = tested on: monocytes; assay: Monocyte phagocytosis of antibody-coated erythrocytes; type: cell-based, human; settings: three days
Description: FIG. 6 is a graph that illustrates the effects of relatively low doses of CdA used to contact monocytes for a 72 hour time period. Monocyte release of interleukin-6 (IL-6; closed diamonds) and phagocytosis of antibody-coated red blood cells (RBC; closed squares) were examined, as was the viability of the cultured monocytes (open squares). Effects are expressed as a percentage of control values versus the CdA concentration in nanomoles (nM).
The effects of sub-lethal CdA concentrations on monocyte function in vitro was also studied. Cells were contacted and cultured with CdA (5-20 nM) for three days, after which phagocytosis and supernatant IL-6 activity were assayed.
Monocyte phagocytosis was assayed using autologous erythrocyte targets, sensitized with a subagglutinating titer of rabbit anti-human erythrocyte IgG (Cappel, Malvern, Pa.). Monocytes (2×10^5 cells/well) were exposed to sub-toxic concentrations of CdA in microwell plates for 72 hours. Complete medium was replaced with medium containing 10% fetal bovine serum, and a suspension of sensitized erythrocytes (0.25% packed cell volume) was added to the adherent monocyte layers. After incubation for 4 hours at 37 degrees C., the degree of phagocytosis was quantitated by the spectrophotometric method of Jungi (1985) J. Immunol. Meth., 82:141-153. […]

[7] = tested on: normal human monocytes; assay: In vitro cytotoxicity toward human monocytes (MTT reduction assay); type: cell-based; settings: for IC50: Homo sapiens, Monocyte
Source text: The percentage of viable cells remaining after treatment (ordinate) is plotted against the concentration of CdA utilized (abscissa), on a linear scale.
Peripheral blood monocytes and lymphocytes were isolated by well known methods from normal subjects. […] The human fibroblast cell line GMO1380 was obtained originally from the NIGMS Human Genetic Mutant Cell Repository, Camden, N.J., and cultured under the same conditions as above. That cell line was from a normal fetal lung.
Meth., 65: 55-63. After culturing for up to five days, 3-(4,5-dimethylthiazol-2-yl)-2,5-diphenyl tetrazolium bromide (MTT) at 0.2 mg (40 μl) was admixed with each well and the incubation was continued for another 4 hours. The plates were then centrifuged at 1000×g for 10 minutes, and supernatants were carefully aspirated with a finely drawn pipette.
Acidified isopropanol (100 μl; using 0.04N HCl) was added to each well.
Viable cell numbers were determined using a Dynatech microplate spectrophotometer, measuring absorbance at a wavelength of 570 nanometers (nm), using a reference wavelength of 630 nm.

[8] = tested on: DHL9, wild type; assay: Direct comparative cytotoxicity assay (Table II), DHL9 wild type; type: cell-based, human; settings: Homo sapiens, 120 h, read-out: ID50: concentration that produced 50 percent reduction in all numbers after five days
Source text: as §1, §2, §3

[9] = tested on: monocytes; assay: Direct comparative cytotoxicity assay (Table II), monocytes; type: cell-based, human; settings: Homo sapiens, Monocyte, 120 h, read-out: ID50: concentration that produced 50 percent reduction in all numbers after five days
Source text: as §1, §2

[10] = tested on: 2 week old cultured monocytes (differentiated macrophages); assay: In vitro cytotoxicity toward 2 week old cultured monocytes; type: cell-based, human

Nc1nc(Cl)nc2c1ncn2[C@H]1C[C@H](O)[C@@H](CO)O1 [CdA, 2-chloro-9,1'-beta-D-2'-deoxyribosyladenine]
swelling after ovalbumin challenge compared to saline control ([1]; intraperitoneal): significant inhibition of swelling | swelling after ovalbumin challenge compared to saline control ([1]; oral): ineffective | autoantibody production [2]: significant decrease in autoantibody production | hemolysis [2]: reduction in hemolysis | IC50 [3]: 21 nM | IC50 [4]: 60 nM | plasma neopterin ([5]; by about day 84 of therapy): about 18 nM | plasma neopterin ([5]; days 14 through 70 after the first administration): about 30 nM | plasma neopterin ([5]; initial value, weekly four hour i.v. infusion 0.125 to 0.15 mg/kg): about 60 nM | plasma neopterin ([5]; within the first seven days of therapy): about 25 nM | cell viability ([6]; 5-20 nM CdA): unchanged cell viability | phagocytosis of antibody-coated erythrocyte targets ([6]; 10 and 20 nM CdA): markedly suppressed | IC50 ([7]; 120 h, five days exposure (FIG. 2), read-out: CdA concentration at which 50 percent of the cultured monocytes were killed): 20 nM | IC50 ([7]; another study, freshly isolated monocytes, read-out: CdA concentration at which 50 percent of freshly isolated monocytes were killed): 22 nM | monocyte sensitivity to CdA in the presence of deoxycytidine ([7]; deoxycytidine 100 μM): substantially reduced | IC50 [8]: 80 nM | IC50 [9]: 22 nM | IC50 ([10]; Homo sapiens, Monocyte, 336 h, read-out: CdA concentration at which 50 percent of 2 week old cultured monocytes were killed): > 250 nM | increase in resistance of 2 week old cultured versus freshly isolated monocytes ([10]; human, monocytes): over 12.5 times
